Measured values: patent US20230346820A1, “METHODS AND COMPOSITIONS FOR THE TREATMENT OF SARS-COV-2” (priority 2020, published 2023)
Structures can show the parent of a compound that is named as a salt.

Assays:
[1] = test system: HeLa-ACE2 cells; experiment: cells; type: cell-based, human; settings: Homo sapiens, HeLa-ACE2, read-out: HeLa-ACE-2 EC50 [μM] (Geomeans, n ≥ 2)
[2] = test system: SARS-CoV-2
[3] = in vitro; settings: human
[4] = test system: SARS-CoV-2; experiment: microbe, parasite or virus in culture; settings: Severe acute respiratory syndrome coronavirus 2, HeLa-ACE2, 24 h, read-out: CoV-2 EC50 [μM] (Geomeans, n ≥ 2)
[5] = test system: SARS-CoV-2; settings: for Calu3 SI CC50/CoV-2 EC50: Table 4
[6] = in vitro; settings: human; remark: listed apart in the source
[7] = CC50 [μM] (Geomeans, n ≥ 2 except where indicated: *n = 1)
[8] = HeLa-ACE2 Uninfected Tox CC50 [μM], Table 4, aggregated data, Geomean, n = 3

SMILES | EC50 [1] | HeLa-ACE2 CC50/CoV-2 EC50 [2] | CC50 [3, 7] | EC50 [4] | HeLa-ACE2 SI CC50/CoV-2 EC50 ([2]; Table 4) | Calu3 SI CC50/CoV-2 EC50 [5] | CC50 [3, 8] | CC50 [6] | activity in Calu-3 infection assay [5] | activity in HeLa-ACE2 infection assay [2]
C=CC(=O)Nc1cc2c(Nc3ccc(F)c(Cl)c3)ncnc2cc1C#CC(C)(C)N1CCN(C)CC1 [MP-412] | 1.25 µM | 4.18 | 3.18 µM | 0.761 µM | – | – | – | – | – | –
CN(C)CCC1CCc2cc(OCc3ccc(-c4ccccc4)cc3)ccc2C1 (centres unmarked) [TAK-070] | > 5.5 µM | 7.19 | 10.1 µM | 1.41 µM | – | – | – | – | – | –
Cc1cccc(C)c1NC(=O)CN1CCN([C@@H]2CCN(C(=O)c3cc(C(F)(F)F)cc(C(F)(F)F)c3)[C@@H](Cc3ccccc3)C2)CC1 [R-116301] | > 9.59 µM | 3.73 | 25.5 µM | 6.83 µM | – | – | – | – | – | –
CCOc1cc(C(C)(C)C)ccc1C1=N[C@@](C)(c2ccc(Cl)cc2)[C@@](C)(c2ccc(Cl)cc2)N1C(=O)N1CCN(CCCS(C)(=O)=O)CC1 [R-7112] | > 9.6 µM | >4.61 | > 14.9 µM | 3.23 µM | – | – | – | – | – | –
COc1ccc(C2(c3ccccc3)NC(=O)N(CCCN3CCC(c4ccccc4)CC3)C2=O)cc1 (centres unmarked) [ROPITOIN] | > 9.59 µM | 5.28 | 21.5 µM | 4.08 µM | – | – | – | – | – | –
CCCN1CCN(c2ccc(C(=O)NC3(C(=O)NCC#N)CCCCC3)cc2)CC1 [Balicatib] | > 9.59 µM | >7.79 | > 39.8 µM | 5.11 µM | – | – | – | – | – | –
CCOC(=O)c1c(CSc2ccccc2)n(C)c2cc(Br)c(O)c(CN(C)C)c12 [Arbidol] | > 9.34 µM | 4.88 | > 29.1 µM | > 5.97 µM | – | – | – | – | – | –
COC(=O)[C@]12CCC(C)(C)C[C@H]1[C@H]1C(=O)C=C3[C@@]4(C)C=C(C#N)C(=O)C(C)(C)[C@@H]4CC[C@@]3(C)[C@]1(C)CC2 [Bardoxolone Methyl] | – | – | – | – | 5.73 | 38.47 | 3.1 µM | 3.06 µM | – | –
O=c1c2ccccc2[se]n1-c1ccccc1 [Ebselen] | 6.02 µM | 3.13 | > 26.6 µM | > 8.5 µM | – | – | – | – | – | –
COc1cc(C(C)=O)ccc1OCCCN1CCC(C(O)(c2ccc(F)cc2)c2ccc(F)cc2)CC1 [AHR-5333] | > 7.1 µM | 5.44 | > 24.7 µM | > 4.53 µM | – | – | – | – | – | –
CN1CCN(CCCN2c3ccccc3Sc3ccc(S(=O)(=O)N(C)C)cc32)CC1 [Thioproperazine] | > 9.59 µM | 7.29 | 22.1 µM | 3.03 µM | – | – | – | – | – | –
Cc1ccc(C(=O)Nc2cccc(C(F)(F)F)c2)cc1NC(=O)c1cccc2c(N)nccc12 [RFM-011-761-3] | > 9.06 µM | >3.37 | > 21.2 µM | 6.31 µM | – | – | – | – | – | –
CC(C)(C)NC(=O)N[C@H](C(=O)N1C[C@H]2[C@@H]([C@H]1C(=O)NC(CC1CCC1)C(=O)C(N)=O)C2(C)C)C(C)(C)C (some centres unmarked) [Boceprevir] | > 7.08 µM | 4.27 | > 39.8 µM | > 9.34 µM | – | – | – | – | – | –
C[C@@H](n1cnc2cc(Cl)ccc2c1=O)[C@](O)(Cn1cncn1)c1ccc(F)cc1F [albaconazole] | > 9.59 µM | 6.6 | > 39.8 µM | > 6.04 µM | – | – | – | – | – | –
C[C@@H]1CCCN1CCc1cc2cc(-c3ccc(C#N)cc3)ccc2o1 [ABT-239] | > 7.49 µM | 11.18 | > 37.2 µM | > 3.33 µM | – | – | – | – | – | –
CC[C@@H](C(=O)O)[C@@H]1O[C@@H]([C@@H](C)[C@H](O)[C@H](C)C(=O)[C@H](CC)[C@H]2O[C@]3(C=C[C@@H](O)[C@]4(CC[C@@](C)([C@H]5CC[C@](O)(CC)[C@H](C)O5)O4)O3)[C@H](C)C[C@@H]2C)[C@@H](C)C[C@@H]1C [Narasin] | 5.99 µM | 2.31 | 3.47 µM | 1.5 µM | – | – | – | – | – | –
CCOC(=O)/C=C/[C@H](C[C@@H]1CCNC1=O)NC(=O)[C@@H](CC(=O)[C@@H](NC(=O)c1cc(C)on1)C(C)C)Cc1ccc(F)cc1 [Rupinavir] | > 9.59 µM | 4.15 | > 39.8 µM | > 9.59 µM | – | – | – | – | – | –
CC(CN1CCN(c2cccc3c2CCCN3)CC1)NC(=O)c1ccc(F)cc1 (centres unmarked) [SLV-307] | > 6.7 µM | 4.15 | > 39.8 µM | > 9.59 µM | – | – | – | – | – | –
c1cn2cc(-c3ccc4c(c3)nc3n4CCN4CCCCC4C3)ccc2n1 (centres unmarked) [Integrity ID 725781] | > 9.59 µM | 4.41 | > 39.8 µM | > 9.04 µM | – | – | – | – | – | –
C=C(C)[C@@H]1CC[C@]2(C(=O)OCC(N)(CO)CO)CC[C@]3(C)[C@H](CC[C@@H]4[C@@]5(C)CC[C@H](OC(C)=O)C(C)(C)[C@@H]5CC[C@]43C)[C@@H]12 [NVX-207] | 5.88 µM | 4.37 | 8.19 µM | 1.87 µM | – | – | – | – | – | –

SMILES | EC50 [1] | HeLa-ACE2 CC50/CoV-2 EC50 [2] | CC50 [3, 7] | EC50 [4] | HeLa-ACE2 SI CC50/CoV-2 EC50 ([2]; Table 4) | Calu3 SI CC50/CoV-2 EC50 [5] | CC50 [3, 8] | CC50 [6] | activity in Calu-3 infection assay [5] | activity in HeLa-ACE2 infection assay [2]
COc1cc(CC2c3cc(OC)c(OC)cc3CCN2C)c(Oc2cc3c(cc2OC)-c2c(O)c(OC)cc4c2C(C3)N(C)CC4)cc1OC (centres unmarked) [Thalicarpine Analog] | > 8.78 µM | 26.77 | > 21.5 µM | > 0.8 µM | – | – | – | – | – | –
C=Cc1cc(C(=O)Nc2ccc(C(=N)N)cc2)c(-c2ccc(C(=O)NCC3CC3)nc2C(=O)O)cc1OC [Avoralstat] | – | – | – | – | – | >77 | > 39.8 µM | > 29.9 µM | active | –
CN(C)CCC(Oc1ccc2c(c1)C(=O)CC(c1ccccc1)O2)c1ccccc1 (centres unmarked) [RFM-007-454-4] | > 9.59 µM | >6.13 | > 23.5 µM | 3.83 µM | – | – | – | – | – | –
CN1CCN(C2=Cc3cc(Cl)ccc3/C(=C\C#N)c3ccccc32)CC1 [Alkene Stereoisomer analog of Rilapine] | > 9.59 µM | >13.32 | > 39.8 µM | 2.99 µM | – | – | – | – | – | –
COC(=O)C1=C(C)NC(C)=C(C(=O)OCCCCNC[C@@H](O)COc2ccccc2)C1c1cccc([N+](=O)[O-])c1 (some centres unmarked) [YM 430] | > 7.8 µM | 7.01 | > 20.2 µM | 2.88 µM | – | – | – | – | – | –
O=C(c1ccc(OCCN2CCCCC2)cc1)c1c(-c2ccc(O)cc2)sc2cc(O)ccc12 [raloxifene hydrochloride] | > 8.71 µM | >2.97 | > 13.3 µM | 4.48 µM | – | – | – | – | – | –
O=c1nc(NO)ccn1[C@@H]1O[C@H](CO)[C@@H](O)[C@H]1O [N-hydroxycytidine] | > 9.6 µM | >18.13 | > 37.5 µM | – | – | – | – | – | potent and selective | potent and selective
CC(C)(/C=N/OCC(=O)O)Cc1c(SC(C)(C)C)c2cc(OCc3ccc4ccccc4n3)ccc2n1Cc1ccc(Cl)cc1 [A 81834] | > 9.59 µM | >3.02 | > 22.6 µM | > 7.47 µM | – | – | – | – | – | –
c1ccc2c(c1)Sc1ccccc1N2CC1CN2CCC1CC2 (centres unmarked) [Mequitazine] | > 9.59 µM | 6.83 | 17.3 µM | 2.53 µM | – | – | – | – | – | –
C=CCc1c(OCCCNCc2ccccc2)ccc2c1[nH]c1ccccc12 [YM-75440] | > 6.58 µM | 4.89 | 8.01 µM | 1.64 µM | – | – | – | – | – | –
OCCN1CCN(CC/C=C2\c3ccccc3Sc3ccc(Cl)cc32)CC1 [ZUCLPEN THIXL] | > 9.59 µM | >8.08 | > 16.8 µM | 2.08 µM | – | – | – | – | – | –
COc1ccc2nc3cc(Cl)ccc3c(Nc3cc(CN4CCCC4)c(O)c(CN4CCCC4)c3)c2n1 [pyronaridine] | 3.41 µM | >4.86 | > 7.39 µM | 1.52 µM | – | – | – | – | – | –
CCNCc1cc(Nc2ccnc3cc(Cl)ccc23)ccc1O | > 9.59 µM | >16.69 | > 20.4 µM | 1.22 µM | – | – | – | – | – | –
COCC12CN(S(=O)(=O)c3ccc4cc(Cl)ccc4c3)CC(=O)N1CC1(CCN(c3ccncc3)CC1)O2 (centres unmarked) [M-55532] | > 6.45 µM | 6.81 | 18.9 µM | 2.77 µM | – | – | – | – | – | –
CN1CCN(C2Cc3cc(Cl)ccc3Sc3ccccc32)CC1 (centres unmarked) [OCTOCLOTHEPIN analog] | > 8.73 µM | >11.42 | > 28.4 µM | 2.49 µM | – | – | – | – | – | –
Oc1ccc(CCN2CCC(Nc3nc4ccccc4n3Cc3ccc(F)cc3)CC2)cc1 [DESMETHYLASTEMIZOLE] | > 9.59 µM | 6.81 | 16.2 µM | 2.38 µM | – | – | – | – | – | –
CC1=C(c2ccc(O)cc2)[C@H](c2ccc(OCCN3CCCCC3)cc2)Oc2cc(O)ccc21 [ACOLBIFENE] | > 9.59 µM | 2.8 | 13.4 µM | 4.79 µM | – | – | – | – | – | –
Cc1cn2nc(-c3cc(=O)n4cc(N5CCNC6(CC6)C5)ccc4n3)cc(C)c2n1 [Risdiplam] | > 7.05 µM | 2.53 | > 17.8 µM | > 7.05 µM | – | – | – | – | – | –
COc1cc2c(Nc3ccc(Cl)c(Cl)c3F)ncnc2cc1OC[C@@H]1C[C@@H]2CN(C)C[C@@H]2C1 [tesevatinib] | > 8.16 µM | >8.46 | > 20.6 µM | 2.44 µM | – | – | – | – | – | –
CNCc1ccc(OC)c([C@]2(N3CCC[C@H]3c3ncco3)C(=O)N(S(=O)(=O)c3ccc(OC)cc3)c3ccc(Cl)cc32)c1 [RFM-011-200-5] | 4.24 µM | >4.37 | > 8.46 µM | 1.93 µM | – | – | – | – | – | –
